What all share (experiment): inhibition of tumour cell growth, NCI panel, 48 h
The test system of test [1] is CAKI-1.
In test [2] the test system is EKVX.
Test [3] has as its system HCC 2998.
Test [4] relates to HCT-15.
For test [5], the system named is IGROV-1.
The subject of test [6] is KM12.
Test [7] concerns MDA-N.
Test [8] deals with Malme-3M.
For test [9], the system named is NCI-H226.
The test system of test [10] is NCI-H23.
Test [11] relates to OVCAR-3.
In test [12] the test system is OVCAR-4.
For test [13], the system named is OVCAR-5.
For test [14], the system named is SF-295.
The test system of test [15] is SK-MEL-28.
The subject of test [16] is SN12C.
Test [17] deals with SW-620.
Test [18] concerns T47D.
For test [19], the system named is U-251.
In test [20] the test system is UO-31.

Structures are written as SMILES.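 Dose response: 5 concentrations. Exposure: 48 h. Format: 96-well plates. Endpoint: linear interpolation; highest concentration if not reached. GI50 is the concentration that inhibits growth by half.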 Calls of active or inactive are those of the source. Rule as the data show it: active = GI50 up to about 1.1 µM and inactive = higher. A value given as a limit tells only on which side of the number the result lay.

`CC(C)COC(=O)OC(=O)c1ccc(N(C)Cc2cnc3nc(N)nc(N)c3n2)cc1`: the GI50 in test [1] was > 32.1 µM (inactive); in test [2], > 52.7 µM (inactive); in test [3], > 100 µM (inactive); in test [4], 1.75 µM; in [5], 8.3 µM (inactive); in test [6], 26.5 µM (inactive). In addition, the GI50 in [7] was 7.96 µM (inactive); in test [8], 36.1 µM (inactive); in [9], > 100 µM (inactive); in [10], 11 µM (inactive); in test [11], > 100 µM (inactive); in [12] it was > 100 µM (inactive). For the same compound, the GI50 in [13] was > 100 µM (inactive); in test [14], 15.7 µM (inactive); in test [15] it was > 86.1 µM (inactive); in test [16] it was > 100 µM (inactive); in [17], 3.86 µM (inactive); in test [18], > 100 µM (inactive). For the same compound, the GI50 in test [19] was > 29.7 µM (inactive); in test [20], > 51.3 µM (inactive).
For the compound `CN1CSC(=S)N(c2c3ccccc3nc3ccc(Br)cc23)C1`, the GI50 in test [1] was 5.41 µM (inactive); in test [2], 12.9 µM (inactive); in test [3], 2.79 µM (inactive); in test [4], 6.4 µM; in test [5], 10.8 µM (inactive); in [6], 7.11 µM (inactive). Moreover, the GI50 in test [7] was 10.4 µM (inactive); in [8], 16.7 µM (inactive); in test [9], 10 µM (inactive); in test [10] it was 10 µM (inactive); in test [11], 16.7 µM (inactive); in test [12], 7.11 µM (inactive). Also, the GI50 is 13.7 µM (inactive) in test [13]; 6.7 µM (inactive) in [14]; 16.9 µM (inactive) in test [15]; 5.31 µM (inactive) in [16]; 3.89 µM (inactive) in test [17]; 11.6 µM (inactive) in test [18]. Moreover, the GI50 is 7.13 µM (inactive) in test [19] and 9.06 µM (inactive) in test [20].
Consider `COc1ccc(CC2c3cc(OC)c(OC)c(OC)c3CC[N+]2(C)C)cc1Oc1ccc(CC2c3cc4c(c(OC)c3CCN2C)OCO4)cc1` (stereo not given), for which the GI50 in [1] was > 100 µM (inactive); in test [2], > 100 µM (inactive); in test [3], > 100 µM (inactive); in [4] it was more than 100 µM; in [5] it was > 100 µM (inactive); in [6], > 100 µM (inactive). Besides, the GI50 in test [7], in [8], in [9], in test [10], in test [11] and in [12] was > 100 µM (inactive) each time. The GI50 in [13], in test [14], in [15], in test [16], in test [17] and in [18] was > 100 µM (inactive) throughout. Besides, the GI50 in [19] and in [20] was > 100 µM (inactive) each time.
Take `O=C(NC(=S)Nc1ccc2c(c1)Sc1ccccc1O2)c1ccccc1`: the GI50 in test [1] is 47.8 µM (inactive); in test [2], 36.1 µM (inactive); in [3] it was 7.46 µM (inactive); in test [4], 14 µM; in [5], 29.6 µM (inactive); in test [6], 29.5 µM (inactive). Also, the GI50 was 3.94 µM (inactive) in test [7]; 23.1 µM (inactive) in [8]; 53.7 µM (inactive) in [9]; 30.8 µM (inactive) in [10]; 35.7 µM (inactive) in [11]; 19.8 µM (inactive) in [12]. In addition, the GI50 in [13] was 77.3 µM (inactive); in test [14] it was 24.3 µM (inactive); in [15], 22.2 µM (inactive); in test [16], 50.1 µM (inactive); in test [17], 32.1 µM (inactive); in [18], 41.3 µM (inactive). Also, the GI50 was 20.7 µM (inactive) in test [19] and > 100 µM (inactive) in [20].

The record behind these values is ChEMBL document CHEMBL1201862, “PubChem BioAssay data set” (2004).
